These results are taken from patent publication US7906522B2, “2-aminoquinazoline derivatives” (Kyowa Hakko Kirin Co., Ltd, priority 2005, dated 2011).

Molecules are shown by their SMILES.

In series [1] the target is T1, Activated human p38α (Homo sapiens, UniProt Q16539).
T1 construct: purchased Upstate Biotechnology Inc. 14-251
Put plainly: p38MAP kinase inhibition test. The conditions noted are these: at a concentration of 1 μmol/L; substrate myelin basic protein, ATP 20 μmol/L, [γ-32P]ATP; read-out: enzyme inhibitory activity. The series is classed as biochemical. The gist of the method: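 Phosphorylation of myelin basic protein (20 μg/assay) by the kinase measured via [γ-32P]ATP incorporation at 20 μmol/L ATP, pH 7.2 MOPS buffer, 30° C. for 15 min. Labelled substrate bound to P81 paper, washed, and quantified by scintillation counting; compounds added in DMSO.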

T1 sequence (Q16539 whole entry): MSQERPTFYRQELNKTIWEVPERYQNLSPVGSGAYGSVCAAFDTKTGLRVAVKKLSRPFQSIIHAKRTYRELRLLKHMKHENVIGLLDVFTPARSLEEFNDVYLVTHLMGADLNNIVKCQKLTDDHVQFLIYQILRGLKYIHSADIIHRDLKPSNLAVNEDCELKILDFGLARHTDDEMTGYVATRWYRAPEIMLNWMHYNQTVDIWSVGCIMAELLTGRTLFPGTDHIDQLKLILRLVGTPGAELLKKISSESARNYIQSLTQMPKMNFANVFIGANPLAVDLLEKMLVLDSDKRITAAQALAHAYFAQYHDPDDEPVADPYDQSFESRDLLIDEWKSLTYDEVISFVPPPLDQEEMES

For orientation: melting point means the temperature, or range, at which the solid turns liquid. `Cc1ccc(C(=O)Nc2cccc(N(C)C)c2)cc1-c1cc2cnc(NC(C)C)nc2cc1O` [Compound 324, 6-{5-[(3-Dimethylaminophenyl)carbamoyl]-2-methylphenyl}-7-hydroxy-2-(isopropylamino)quinazoline] showed a melting point of 217 to 218 °C. Moreover, the inhibition at 1 µM in series [1] is not below 50%.
On the same counts, the results for `CC(C)Nc1ncc2cc(-c3cccc(C(=O)Nc4cccc(N(C)C)c4)c3)c(O)cc2n1` [Compound 325, 6-{3-[(3-Dimethylaminophenyl)carbamoyl]phenyl}-7-hydroxy-2-(isopropylamino)quinazoline] are 236 °C and not below 50%.
In the same order, the values of `CC(C)Nc1ncc2cc(-c3cccc(C(=O)Nc4cccc(N5CCOCC5)c4)c3)c(O)cc2n1` [Compound 328, 7-Hydroxy-2-isopropylamino-6-{3-[(3-morpholinophenyl)carbamoyl]phenyl}quinazoline] are 248 to 249 °C and not below 50%.
On the same counts, the results for `CC(C)Nc1ncc2cc(-c3cccc(C(=O)Nc4cccc(N5CCCC5)c4)c3)c(O)cc2n1` [Compound 330, 7-Hydroxy-2-isopropylamino-6-{3-[3-(pyrrolidin-1-yl)phenylcarbamoyl]phenyl}quinazoline] are 251 to 253 °C and not below 50%.
Molecule `CC(C)Nc1ncc2cc(-c3cccc(NC(=O)c4cc(F)cc(N5CCOCC5)c4)c3)c(O)cc2n1` [Compound 332, 6-[3-(3-Fluoro-5-morpholinobenzoylamino)phenyl]-7-hydroxy-2-(isopropylamino)quinazoline] had a melting point of 217 to 219 °C. The inhibition at 1 µM in series [1] is not below 50%.
In the case of `CC(C)Nc1ncc2cc(-c3cccc(C(=O)NC4CC4)c3)c(O)cc2n1` [Compound 334, 6-[3-(Cyclopropylcarbamoyl)phenyl]-7-hydroxy-2-(isopropylamino)quinazoline], the melting point was 250 °C (dec.). The inhibition at 1 µM in series [1] is not below 50%.
Molecule `CC(C)Nc1ncc2cc(-c3cccc(NC(=O)c4ccnc(N5CCCC5)c4)c3)c(O)cc2n1` [Compound 336, 7-Hydroxy-2-isopropylamino-6-{3-[2-(pyrrolidin-1-yl)pyridin-4-ylcarbonylamino]phenyl}quinazoline] registered a melting point of 248 to 249 °C. Further, in series [1], the inhibition at 1 µM was not below 50%.
On the same counts, the results for `COc1ccc(C(F)(F)F)cc1NC(=O)c1ccc(C)c(-c2cc3cnc(NC(C)C)nc3cc2O)c1` [Compound 338, 7-Hydroxy-2-isopropylamino-6-{5-[(2-methoxy-5-trifluoromethylphenyl)carbamoyl]-2-methylphenyl}quinazoline] are 280 to 281 °C and not below 50%.
`CC(C)Nc1ncc2cc(-c3cccc(NC(=O)c4cccc(N5CCOCC5)c4)c3)c(O)cc2n1` [Compound 340, 7-Hydroxy-2-isopropylamino-6-[3-(3-morpholinobenzoylamino)phenyl]quinazoline]: the melting point was 230 °C. Moreover, the inhibition at 1 µM in series [1] is not below 50%.
Regarding `CC(C)Nc1ncc2cc(-c3cccc(C(=O)Nc4ccnc(N5CCOCC5)c4)c3)c(O)cc2n1` [Compound 342, 7-Hydroxy-2-isopropylamino-6-{3-[(2-morpholinopyridin-4-yl)carbamoyl]phenyl}quinazoline], the melting point lay within 255 to 257 °C. Moreover, in series [1], the inhibition at 1 µM was not below 50%.
On the same counts, the results for `Cc1c(F)cc(C(=O)NC2CC2)cc1-c1cc2cnc(NC(C)C)nc2cc1O` [Compound 344, 6-(5-Cyclopropylcarbamoyl-3-fluoro-2-methylphenyl)-7-hydroxy-2-(isopropylamino)quinazoline] are 175 to 177 °C and not below 50%.
In the same order, the values of `Cc1ccc(NC(=O)c2ccnc(N3CCOCC3)c2)cc1-c1cc2cnc(NC(C)C)nc2cc1O` [Compound 346, 7-Hydroxy-2-isopropylamino-6-{2-methyl-5-[(2-morpholinopyridin-4-yl)carbonylamino]phenyl}quinazoline] are 169 to 172 °C and not below 50%.
In the same order, the values of `COc1c(NC(=O)c2ccc(C)c(-c3cc4cnc(NC(C)C)nc4cc3O)c2)cc(C(C)(C)C)cc1NS(C)(=O)=O` [Compound 348, 6-{5-[(5-tert-Butyl-2-methoxy-3-methylsulfonylaminophenyl)carbamoyl]-2-methylphenyl}-7-hydroxy-2-(isopropylamino)quinazoline] are 251 to 253 °C and not below 50%.
`CC(C)Nc1ncc2cc(-c3cccc(NC(=O)c4ccnc(N5CCCCC5)c4)c3)c(O)cc2n1` [Compound 349, 7-Hydroxy-2-isopropylamino-6-{3-[(2-piperidinopyridin-4-yl)carbonylamino]phenyl}quinazoline] showed a melting point of 226 to 227 °C. In addition, the inhibition at 1 µM in series [1] was not below 50%.
In turn, `CC(C)Nc1ncc2cc(-c3cccc(NC(=O)c4cc(F)cc(N5CCCC5)c4)c3)c(O)cc2n1` [Compound 351, 6-{3-[3-Fluoro-5-(pyrrolidin-1-yl)benzoylamino]phenyl}-7-hydroxy-2-(isopropylamino)quinazoline] returned a melting point of 229 °C. Further, the inhibition at 1 µM in series [1] was not below 50%.
On the same counts, the results for `CONC(=O)c1ccc(C)c(-c2cc3cnc(NC(C)C)nc3cc2O)c1` [Compound 353, 7-Hydroxy-2-isopropylamino-6-(5-methoxycarbamoyl-2-methylphenyl)quinazoline] are 158 to 161 °C and not below 50%.
On the same counts, the results for `CC(C)Nc1ncc2cc(-c3cccc(NC(=O)c4ccnc(-c5ccc(F)cc5)c4)c3)c(O)cc2n1` [Compound 355, 6-{3-[2-(4-Fluorophenyl)pyridin-4-ylcarbonylamino]phenyl}-7-hydroxy-2-(isopropylamino)quinazoline] are 243 to 245 °C and not below 50%.
On the same counts, the results for `Cc1ccc(-n2nc(C)cc2NC(=O)c2ccc(C)c(-c3cc4cnc(NC(C)C)nc4cc3O)c2)cc1` [Compound 357, 7-Hydroxy-2-isopropylamino-6-{2-methyl-5-[5-methyl-2-(4-methylphenyl)-2H-pyrazol-3-ylcarbamoyl]phenyl}quinazoline] are 173 to 175 °C and not below 50%.
For `CC[C@H](C)Nc1ncc2cc(-c3cc(C(=O)NC4CC4)ccc3C)c(O)cc2n1` [Compound 361, (S)-2-(sec-Butylamino)-6-(5-cyclopropylcarbamoyl-2-methylphenyl)-7-hydroxyquinazoline], the melting point was found to be 153 °C. Besides, the inhibition at 1 µM in series [1] was not below 50%.
In the same order, the values of `CC[C@H](C)Nc1ncc2cc(-c3cccc(NC(=O)c4ccnc(N5CCOCC5)c4)c3)c(O)cc2n1` [Compound 363, (S)-2-(sec-butylamino)-7-hydroxy-6-{3-[(2-morpholinopyridin-4-yl)carbonylamino]phenyl}quinazoline] are 183 to 184 °C and not below 50%.
On the same counts, the results for `CCC(CC)Nc1ncc2cc(-c3cc(C(=O)NC4CC4)ccc3C)c(O)cc2n1` [Compound 365, 6-(5-Cyclopropylcarbamoyl-2-methylphenyl)-2-(3-pentylamino)-7-hydroxyquinazoline] are 210 °C and not below 50%.
On to `CCC(CC)Nc1ncc2cc(-c3cccc(NC(=O)c4cccc(N(C)C)c4)c3)c(O)cc2n1` [Compound 366, 6-{3-[(3-Dimethylaminophenyl)carbonylamino]phenyl}-2-(3-pentylamino)-7-hydroxyquinazoline], for which the melting point was found to be 152 °C. The inhibition at 1 µM in series [1] was not below 50%.
In the same order, the values of `CCC(CC)Nc1ncc2cc(-c3cccc(NC(=O)c4ccnc(N5CCOCC5)c4)c3)c(O)cc2n1` [Compound 368, 2-(3-Pentylamino)-7-hydroxy-6-{3-[(2-morpholinopyridin-4-yl)carbonylamino]phenyl}quinazoline] are 154 to 155 °C and not below 50%.
